Values of other authors as cited in PubChem BioAssay AID1259409 (Chemical Carcinogenesis Research Information System (CCRIS), 2018).
Where “and” joins values, the source holds several entries; their conditions need not be identical. Equal values may be shown once.

Tested on: rodent chemically induced tumor inhibition, incidence and multiplicity
Assay: CCRIS tumor inhibitor studies
Details: Carcinogen: 7,12-DIMETHYLBENZ[A]ANTHRACENE, 57-97-6, Route [Inhibitor]: DERMAL, Species: MOUSE, Target Tissue: Type of Lesion: SKIN: PAPILLOMA, Promoter: 12-O-TETRADECANOYLPHORBOL-13-ACETATE, 16561-29-8

Q: Which results are given for `CC1=C(/C=C/C(C)=C/C=C/C(C)=C/C(=O)O)C(C)(C)CCC1`?
A: tumour outcome (control, treated, inhibition, significance) (Dose [Inhibitor]: 17 NMOL IN 0.2 ML ACETONE 1 HR PRIOR TO EACH PROMOTER DOSE BEGINNING AT WEEK 10 OF PROMOTION AND CONTINUING FOR DURATION, Strain/Sex: CD-1/FEMALE, Dose [Carcinogen]: 200 NMOL IN 0.2 ML ACETONE ONCE): 100%, 95%, 5%, p>0.3; tumour outcome (control, treated, inhibition, significance) (Dose [Inhibitor]: 17 NMOL IN 0.2 ML ACETONE 1 HR PRIOR TO EACH PROMOTER DOSE FOR 12 WK (STUDY DURATION: 14 WK), Strain/Sex: SENCAR/FEMALE, Dose [Carcinogen]: 200 NMOL IN 0.2 ML ACETONE ONCE): 100%, 87%, 13%, not calculated; tumour outcome (control, treated, inhibition, significance) (Dose [Inhibitor]: 17 NMOL IN 0.2 ML ACETONE 1 HR PRIOR TO EACH PROMOTER DOSE FOR 20 WK (STUDY DURATION: 22 WK), Strain/Sex: CD-1/FEMALE, Dose [Carcinogen]: 200 NMOL IN 0.2 ML ACETONE ONCE): 94%, 62%, 34%, not calculated; tumour outcome (control, treated, inhibition, significance) (Dose [Inhibitor]: 17 NMOL IN 0.2 ML ACETONE 1 HR PRIOR TO EACH PROMOTER DOSE FOR DURATION OF STUDY (STUDY DURATION: 27 WK), Strain/Sex: CD-1/FEMALE, Dose [Carcinogen]: 200 NMOL IN 0.2 ML ACETONE ONCE): 100%, 60%, 40%, p<0.02; tumour outcome (control, treated, inhibition, significance) (Dose [Inhibitor]: 17 NMOL IN 0.2 ML ACETONE 1 HR PRIOR TO EACH PROMOTER DOSE FOR FIRST 10 WK OF PROMOTION (STUDY DURATION: 27 WK), Strain/Sex: CD-1/FEMALE, Dose [Carcinogen]: 200 NMOL IN 0.2 ML ACETONE ONCE): 100%, 90%, 10%, p>0.3; tumour outcome (control, treated, inhibition, significance) (Dose [Inhibitor]: 17 NMOL IN 0.2 ML ACETONE 2/WK 1 HR BEFORE EACH PROMOTER APPLICATION STARTING 14 D AFTER CARCINOGEN APPLICATION AND CONT, Strain/Sex: CD-1/FEMALE, Dose [Carcinogen]: 0.2 UMOL IN 0.2 ML ACETONE ONCE): 98%, 42%, 57%, not calculated; tumour outcome (control, treated, inhibition, significance) (Dose [Inhibitor]: 17 NMOL IN 0.2 ML ACETONE 2/WK 1 HR BEFORE EACH PROMOTER APPLICATION STARTING 14 D AFTER CARCINOGEN APPLICATION AND CONT, Strain/Sex: CD-1/FEMALE, Dose [Carcinogen]: 0.2 UMOL ONCE): 100%, 80%, 20%, not significant; tumour outcome (control, treated, inhibition, significance) (Dose [Inhibitor]: 17 NMOL IN 0.2 ML ACETONE 2/WK 24 HR AFTER EACH PROMOTER TREATMENT STARTING 14 D AFTER CARCINOGEN TREATMENT AND CONTINUI, Strain/Sex: CD-1/FEMALE, Dose [Carcinogen]: 0.2 UMOL IN 0.2 ML ACETONE ONCE): 98%, 96%, 2%, not significant; tumour outcome (control, treated, inhibition, significance) (Dose [Inhibitor]: 34 NMOL IN 0.2 ML ACETONE 2/WK 1 HR BEFORE EACH PROMOTER APPLICATION STARTING 14 D AFTER CARCINOGEN APPLICATION AND CONT, Strain/Sex: CD-1/FEMALE, Dose [Carcinogen]: 0.2 UMOL IN 0.2 ML ACETONE ONCE): 90%, 55%, 39%, not calculated and 90%, 48%, 47%, not calculated; tumour outcome (control, treated, inhibition, significance) (Dose [Inhibitor]: 68 NMOL IN 0.2 ML ACETONE 2/WK 1 HR BEFORE EACH PROMOTER APPLICATION STARTING 14 D AFTER CARCINOGEN APPLICATION AND CONT, Strain/Sex: CD-1/FEMALE, Dose [Carcinogen]: 0.2 UMOL IN 0.2 ML ACTEONE ONCE): 95%, 53%, 44%, not calculated
